Test results: patent US10794932B2, “Biosensor for the detection of a biological target, and method for manufacturing the same” (The Governing Council of The University of Toronto, priority 2016, dated 2020)

How the values were obtained:
TLR1 = molecular target: T1, TLR1 (Mus musculus, UniProt Q9EPQ1); test: TLR multiplex sensor, EIS film resistance before/after exposure (Example 5), TLR1 sensor; format: binding; settings: exposure 20 minutes
T1 sequence (Q9EPQ1 26-795): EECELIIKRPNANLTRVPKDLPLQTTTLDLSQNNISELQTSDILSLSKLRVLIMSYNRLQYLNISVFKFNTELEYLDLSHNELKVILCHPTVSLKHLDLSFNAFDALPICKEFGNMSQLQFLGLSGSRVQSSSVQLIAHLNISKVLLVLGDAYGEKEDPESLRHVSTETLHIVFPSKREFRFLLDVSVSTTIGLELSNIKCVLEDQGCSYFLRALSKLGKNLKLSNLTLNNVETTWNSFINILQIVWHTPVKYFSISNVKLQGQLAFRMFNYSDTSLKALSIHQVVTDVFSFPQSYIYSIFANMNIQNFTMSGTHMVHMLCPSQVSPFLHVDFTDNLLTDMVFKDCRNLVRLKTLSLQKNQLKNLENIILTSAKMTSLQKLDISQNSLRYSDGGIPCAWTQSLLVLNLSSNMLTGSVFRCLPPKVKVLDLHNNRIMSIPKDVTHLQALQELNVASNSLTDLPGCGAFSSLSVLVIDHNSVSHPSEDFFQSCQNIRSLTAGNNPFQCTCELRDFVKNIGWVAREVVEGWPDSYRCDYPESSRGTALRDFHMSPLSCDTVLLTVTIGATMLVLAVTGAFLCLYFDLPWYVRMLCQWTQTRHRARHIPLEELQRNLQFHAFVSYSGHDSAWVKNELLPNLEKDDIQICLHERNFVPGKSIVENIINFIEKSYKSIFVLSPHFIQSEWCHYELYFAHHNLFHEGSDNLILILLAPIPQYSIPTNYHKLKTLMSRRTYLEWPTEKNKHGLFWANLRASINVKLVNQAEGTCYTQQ
Method: For each multiplex TLR sensor, 5 separate gold electrodes were used for binding TLR 1 to 5. The 5 modified electrodes/sensors were exposed to the analyte solution and evaluated one by one using potentiostats and electrochemical cells.
The preparation of each TLR biosensor was evaluated using EIS. It is understood that cyclic voltammetry as well as electrochemical impedance microscopy can also be used for monitoring the modification. […] Ethanolamine was then applied to deactivate unreacted LPA. Due to dissociation of unspecific absorbed TLR, the Rct dropped slightly. Experimental curves were evaluated using a model to obtain the Rct values, which can be seen at FIG. 9. Measurements from at least triplicated samples prepared were used to obtain statistic information.
The TLR1 sensor was exposed to an E. coli K12 whole-cell buffer solution for 20 minutes. The sensor was then removed, washed thoroughly and characterized in the electrochemical cell measuring the Rct again. The difference in Rct before and after exposure is the response triggered by the target. The same protocol was carried out for all remaining TLRs (TLRs 2-5) to obtain one set of pattern for E. coli K12 (FIGS. 10b to 10e). Multiple sets were investigated for statistical relevance. […]

rmTLR3 = molecular target: T2, rmTLR3 (Mus musculus, UniProt Q99MB1); test: Selectivity test, TLR3 sensor, EIS; format: binding; settings: 10 μM
T2 construct: purchased
T2 sequence (Q99MB1 26-905): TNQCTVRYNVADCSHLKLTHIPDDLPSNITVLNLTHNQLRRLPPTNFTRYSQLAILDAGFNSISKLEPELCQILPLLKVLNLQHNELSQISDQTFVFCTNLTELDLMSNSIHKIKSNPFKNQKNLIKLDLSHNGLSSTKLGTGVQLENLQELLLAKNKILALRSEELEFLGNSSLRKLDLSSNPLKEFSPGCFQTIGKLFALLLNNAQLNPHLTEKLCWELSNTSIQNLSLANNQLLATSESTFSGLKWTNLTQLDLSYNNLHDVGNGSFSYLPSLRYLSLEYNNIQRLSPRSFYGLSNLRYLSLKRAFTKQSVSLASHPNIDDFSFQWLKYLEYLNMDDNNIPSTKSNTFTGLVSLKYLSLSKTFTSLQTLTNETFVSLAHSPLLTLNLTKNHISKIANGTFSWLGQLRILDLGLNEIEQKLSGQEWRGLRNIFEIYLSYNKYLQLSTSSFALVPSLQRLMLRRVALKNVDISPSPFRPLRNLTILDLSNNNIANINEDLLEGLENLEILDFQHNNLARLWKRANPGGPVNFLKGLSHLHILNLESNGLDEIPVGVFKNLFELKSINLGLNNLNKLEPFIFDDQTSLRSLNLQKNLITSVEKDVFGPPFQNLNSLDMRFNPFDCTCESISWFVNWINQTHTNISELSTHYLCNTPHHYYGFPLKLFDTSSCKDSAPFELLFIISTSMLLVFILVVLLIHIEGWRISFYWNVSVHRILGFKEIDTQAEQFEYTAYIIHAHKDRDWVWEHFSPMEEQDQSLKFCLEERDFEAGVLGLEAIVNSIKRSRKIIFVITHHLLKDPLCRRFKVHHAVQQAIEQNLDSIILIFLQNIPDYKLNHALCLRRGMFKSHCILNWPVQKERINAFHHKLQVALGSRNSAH

## Pam3CSK4
TLR1
  delta Rct %: 20%
rmTLR3
  electrochemical response (selectivity test): slight signal variations
